Data reported in US12497396B2, “Nitrogen-containing heterocyclic derivatives, method therefor and application therefor as inhibitors of KRAS G12C for the treatment of cancers” (SHANGHAI HANSOH BIOMEDICAL CO., LTD., priority 2019, dated 2025).

Experiments:
[1] = Plasma protein binding rate, mouse plasma; format: in vitro ADME; conditions: 37° C.
Method: (§1) The embodiment compound was prepared into a 1 mM solution A with DMSO.
(§2) Solution A was added to the plasma solution and prepared into a 5 μM solution B.
(§3) • 1) 200 μL of solution B was added into the membrane. • 2) 350 μL of PBS was added to the outside of the membrane. • 3) Incubating in a 37° C. water bath for 6 hours. • 4) The samples were processed for dilution and detected by mass spectrometry.
(§4) • Instrument: Shimadzu LC-20 AD; • Chromatographic column: phenomenex Gemiu® C18 (50*4.6 mm, 5 μM particle size); • Mobile phase: A: Acetonitrile, B: 0.1% formic acid solution 0-0.5 min: 5% A→90% A, 2.0-2.1 min: 90% A→5% A; flow rate: 0.8 mL/min; running time: 5.0 min; injection volume: 5 μL.
(§5) • Instrument: API4000 Liquid Chromatography-Mass Spectrometry, AB, USA; • the ion source was electrospray ionization source (ESI); • the temperature of dry gas (N2) was 500° C.; • electrospray voltage was 5500V; • the detection method was positive ion detection; • the scanning mode was selective response monitoring (MRM); the scanning time was 0.1 s.

[2] = Plasma protein binding rate, dog plasma; format: in vitro ADME; conditions: 37° C.
Method: as §1, §2, §3, §4, §5

hERG potassium channel = molecular target: T1, hERG potassium channel (Homo sapiens, UniProt Q12809); assay: hERG potassium channel inhibitory activity (Qpatch, CHO-hERG cells); format: cell-based; conditions: inhibition of hERG current, multiple concentrations
T1 construct: expressed in transfected cells; host or cells: CHO-hERG cells
Method: 7.1.1 CHO-hERG cells were cultured in a 175 cm^2 flask, when the cell density reached 60-80%, the culture medium was removed, the cells were washed with 7 mL PBS, and then digested with 3 mL Detachin.
7.1.2 After complete digestion, 7 mL culture medium was added to neutralize, then the mixture was centrifuged, the supernatant was aspirated, and then 5 mL culture medium was added to re-suspend, ensuring 2-5×10^6/mL of cell density.
The process of single cell high impedance sealing and whole cell mode formation were all automatically completed by Qpatch instrument, after obtaining the whole cell recording mode, the cells were clamped at −80 mV, before giving a 5-second +40 mV depolarization stimulus, a 50 millisecond −50 mV prevoltage was given first, and then repolarized to −50 mV for 5 seconds, then returned to −80 mV. This voltage stimulation was applied every 15 seconds and recorded for 2 minutes before giving extracellular fluid recordings for 5 minutes, and then the administration process was started, the compound concentration was given from the lowest test concentration, each test concentration was given for 2.5 minutes, and the positive control compound 0.1 μM of Cisapride was given after all concentrations were continuously given. At least 3 cells (n≥3) were tested at each concentration.
7.4.1 20 mM of compound mother liquor was diluted with extracellular fluid, 5 μL of 20 mM compound mother liquor was added into 2495 μL of extracellular fluid and diluted 500-fold to 40 μM, and then the final concentration to be tested was obtained by sequential 3-fold serial dilutions in extracellular solution containing 0.2% DMSO.
7.4.2 The highest test concentration was 40 μM, in a total of 6 concentrations of 40, 13.33, 4.44, 1.48, 0.49 and 0.16 μM respectively.
7.4.3 The content of DMSO in the final test concentration was not more than 0.2%, and this concentration of DMSO had no effect on hERG potassium channel.
The experimental data were analyzed by XLFit software.

[3] = Plasma protein binding rate, rat plasma; format: in vitro ADME; conditions: 37° C.
Method: as §1, §2, §3, §4, §5

[4] = test system: NCI-H358 cells (KRAS G12C mutant cell line); assay: Inhibition of NCI-H358 cell proliferation (CellTiter-Glo, 72 h); format: cell-based, human; conditions: Homo sapiens
How it was run: (§6)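 Cells were seeded overnight at 37 °C, 5% CO2, then exposed to serially diluted compound (DMSO/medium) alongside a solvent control for 72 h. Viability was read by CellTiter-Glo luminescence, and IC50 was derived by nonlinear regression of inhibition rate against concentration.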

[5] = test system: Mia PaCa-2 cells (KRAS G12C mutant cell line); assay: Inhibition of Mia PaCa-2 cell proliferation (CellTiter-Glo, 72 h); format: cell-based, human; conditions: Homo sapiens
How it was run: as §6

T1 sequence (Q12809 whole entry): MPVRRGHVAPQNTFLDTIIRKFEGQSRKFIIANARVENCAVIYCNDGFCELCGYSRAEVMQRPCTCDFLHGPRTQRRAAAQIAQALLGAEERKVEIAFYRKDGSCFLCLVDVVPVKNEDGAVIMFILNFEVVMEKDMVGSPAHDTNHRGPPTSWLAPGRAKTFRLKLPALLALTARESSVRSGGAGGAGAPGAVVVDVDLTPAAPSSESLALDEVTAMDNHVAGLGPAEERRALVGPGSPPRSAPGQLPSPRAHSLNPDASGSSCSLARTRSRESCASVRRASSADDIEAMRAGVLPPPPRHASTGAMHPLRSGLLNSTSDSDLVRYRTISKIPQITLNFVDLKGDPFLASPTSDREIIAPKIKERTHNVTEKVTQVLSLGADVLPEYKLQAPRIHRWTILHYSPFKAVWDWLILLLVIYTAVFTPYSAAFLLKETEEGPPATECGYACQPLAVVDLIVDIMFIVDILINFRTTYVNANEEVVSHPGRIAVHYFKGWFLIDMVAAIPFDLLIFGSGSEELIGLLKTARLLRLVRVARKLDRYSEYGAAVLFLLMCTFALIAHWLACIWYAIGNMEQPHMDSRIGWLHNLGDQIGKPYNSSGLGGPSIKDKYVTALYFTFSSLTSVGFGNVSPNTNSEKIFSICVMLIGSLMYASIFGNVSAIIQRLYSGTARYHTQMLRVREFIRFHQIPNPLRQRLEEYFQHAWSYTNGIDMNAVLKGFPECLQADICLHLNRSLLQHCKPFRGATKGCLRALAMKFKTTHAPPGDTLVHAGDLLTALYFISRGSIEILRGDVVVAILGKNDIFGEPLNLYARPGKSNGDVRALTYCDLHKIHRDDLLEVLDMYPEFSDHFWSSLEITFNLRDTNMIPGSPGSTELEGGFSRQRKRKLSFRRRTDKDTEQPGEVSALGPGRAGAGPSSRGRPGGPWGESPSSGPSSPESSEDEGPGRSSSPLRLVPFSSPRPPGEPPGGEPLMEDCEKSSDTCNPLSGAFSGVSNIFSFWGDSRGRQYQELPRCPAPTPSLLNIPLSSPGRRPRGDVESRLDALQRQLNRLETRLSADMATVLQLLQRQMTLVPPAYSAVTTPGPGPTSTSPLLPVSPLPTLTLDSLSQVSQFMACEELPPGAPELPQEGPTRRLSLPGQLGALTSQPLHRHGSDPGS

Row | Structure (SMILES) | fraction unbound at 6 h, 5 μM [1] | fraction unbound at 6 h, 5 μM [2] | IC50 (hERG potassium channel) | fraction unbound at 6 h, 5 μM [3] | IC50 [4] | IC50 [5]
1 | C=CC(=O)N1C[C@H](C)N(c2nc(=O)n(-c3c(SC)ccnc3C(C)C)c3nc(-c4c(O)cccc4F)c(Cl)cc23)C[C@H]1C (single isomer, unassigned) [Embodiment 166-1] | 0.037 | 0.075 | > 30000 nM | 0.046 | 17 nM | 11 nM
2 | C=CC(=O)N1C[C@H](C)N(c2nc(=O)n(-c3c(SC)ccnc3C(C)C)c3nc(-c4c(N)ccc(Cl)c4F)c(Cl)cc23)C[C@H]1C (single isomer, unassigned) [Embodiment 165-1] | 0.061 | 0.013 | > 30000 nM | 0.021 | 6.6 nM | 3.3 nM
3 | C=CC(=O)N1C[C@H](C)N(c2nc(=O)n(-c3c(SC)ccnc3C(C)C)c3nc(-c4c(O)cccc4F)c(F)cc23)C[C@H]1C (single isomer, unassigned) [Embodiment 114-1] | 0.116 | 0.174 | > 30000 nM | 0.095 | 35 nM | 29 nM
